US20240166652A1, “MODULATORS OF THE INTEGRATED STRESS PATHWAY” (Calico Life Sciences LLC, priority 2017, published 2024)
pEC50: −log10 of the molar value.

These molecules were tested on ATF4 luciferase reporter in HEK293T cells (assay: ATF4-Luc assay (ATF4 luciferase reporter, tunicamycin-treated HEK293T cells)). Conditions: Homo sapiens, HEK-293T; HEK293T cells carrying the ATF4 luciferase reporter, 1 μg/mL tunicamycin, 7 hours.
Assay type: cell-based, human
In the case of `O=C(COc1ccc(OC(F)(F)F)c(F)c1)NC12CCC(NC(=O)COc3ccc(Cl)c(F)c3)(CC1)[C@@H](O)C2` [Compound 761, 2-(4-chloro-3-fluorophenoxy)-N-[(2S)-4-{2-[3-fluoro-4-(trifluoromethoxy)phenoxy]acetamido}-2-hydroxybicyclo[2.2.2]octan-1-yl]acetamide], the pEC50 was > 8.00.
With `O=C(COc1cc(F)c2cn[nH]c2c1)NC12CCC(NC(=O)COc3ccc(Cl)c(F)c3)(CC1)[C@@H](O)C2` [Compound 727, 2-(4-chloro-3-fluorophenoxy)-N-[(2S)-4-{2-[(4-fluoro-1H-indazol-6-yl)oxy]acetamido}-2-hydroxybicyclo[2.2.2]octan-1-yl]acetamide] the pEC50 was > 8.00.
In the case of `O=C(COc1ccc(Cl)c(Cl)c1)NC12CCC(NC(=O)COc3ccc(Cl)c(F)c3)(CC1)C(=O)N2` [Compound 602, 2-(4-chloro-3-fluorophenoxy)-N-{1-[2-(3,4-dichlorophenoxy)acetamido]-3-oxo-2-azabicyclo[2.2.2]octan-4-yl}acetamide], the pEC50 was > 8.00.
`O=C(COc1ccc2c(c1)OC(F)(F)C(F)(F)O2)NC12CCC(NC(=O)COc3ccc(Cl)c(F)c3)(CC1)C(=O)N2` [Compound 689, 2-(4-chloro-3-fluorophenoxy)-N-(3-oxo-1-{2-[(2,2,3,3-tetrafluoro-2,3-dihydro-1,4-benzodioxin-6-yl)oxy]acetamido}-2-azabicyclo[2.2.2]octan-4-yl)acetamide] showed a pEC50 of 6.60 to 7.30.
For `O=C(COc1ccc(Cl)c(F)c1)NC12CCC(NC(=O)CCOc3ccc(Cl)c(F)c3)(CC1)[C@@H](O)C2` [Compound 650, 3-(4-chloro-3-fluorophenoxy)-N-{(2S)-4-[2-(4-chloro-3-fluorophenoxy)acetamido]-2-hydroxybicyclo[2.2.2]octan-1-yl}propanamide], the pEC50 was > 8.00.
For `O=C(COc1ccc(Cl)c(F)c1)NC12CC(NS(=O)(=O)CCOc3ccccc3F)(C1)C2` [Compound 485, 2-(4-chloro-3-fluorophenoxy)-N-(3-{[2-(2-fluorophenoxy)ethanesulfonyl]amino}bicyclo[1.1.1]pentan-1-yl)acetamide], the pEC50 was 5.70 to 6.30.
In the case of `Cc1cccc(COCC(=O)NC23CC(NC(=O)COc4ccc(Cl)c(F)c4)(C2)C3)n1` [Compound 128, 2-(4-chloro-3-fluorophenoxy)-N-(3-{2-[(6-methylpyridin-2-yl)methoxy]acetamido}bicyclo[1.1.1]pentan-1-yl)acetamide], the pEC50 was 5.70 to 6.30.
With `CC(O)c1ccc(OCC(=O)NC23CC(NC(=O)COc4ccc(Cl)c(F)c4)(C2)C3)cn1` (centres unmarked) [Compound 263, 2-(4-chloro-3-fluorophenoxy)-N-[3-(2-{[6-(1-hydroxyethyl)pyridin-3-yl]oxy}acetamido)bicyclo[1.1.1]pentan-1-yl]acetamide] the pEC50 was 5.70 to 6.30.
In the case of `CN(C)c1ccc(CCOCC(=O)NC23CC(NC(=O)COc4ccc(Cl)c(F)c4)(C2)C3)cc1` [Compound 143, 2-(4-chloro-3-fluorophenoxy)-N-[3-(2-{2-[4-(dimethylamino)phenyl]ethoxy}-acetamido)bicyclo[1.1.1]pentan-1-yl]acetamide], the pEC50 was < 5.70.
With `O=C(COc1ccc(Cl)cc1)NC12CC(NC(=O)COc3ccc(F)c(F)c3)(C1)C2` [Compound 837, 2-(4-chlorophenoxy)-N-{3-[2-(3,4-difluorophenoxy)acetamido]bicyclo[1.1.1]pentan-1-yl}acetamide] the pEC50 was > 8.00.
With `O=C(COc1ccc(Cl)c(F)c1)NC12CCC(NC(=O)CNc3ccc(Cl)c(F)c3)(CC1)[C@@H](O)C2` [Compound 748, 2-(4-chloro-3-fluoroanilino)-N-{(2S)-4-[2-(4-chloro-3-fluorophenoxy)acetamido]-2-hydroxybicyclo[2.2.2]octan-1-yl}acetamide] the pEC50 was 7.30 to 8.00.
For `O=C(COc1ccc(Cl)c(F)c1)NC12CCC(NC(=O)COc3ccc(Cl)c(F)c3)(CC1)[C@H](C(=O)O)C2` [Compound 559, (2R)-1,4-bis[2-(4-chloro-3-fluorophenoxy)acetamido]bicyclo[2.2.2]octane-2-carboxylic Acid], the pEC50 was 5.70 to 6.30.
`O=C(COc1ccc(OC(F)(F)F)cc1)NC12CCC(NC(=O)COc3ccc(F)cc3)(CC1)[C@@H](O)C2` [Compound 781, 2-(4-fluorophenoxy)-N-[(2S)-2-hydroxy-4-{2-[4-(trifluoromethoxy)phenoxy]acetamido}bicyclo[2.2.2]octan-1-yl]acetamide] was tested, and the pEC50 was > 8.00.
`O=C(COc1ccc(Cl)c(Cl)c1)NC12CC(NCCOc3ccc(Cl)c(F)c3)(C1)C2` [Compound 124, N-(3-{[2-(4-chloro-3-fluorophenoxy)ethyl]amino}bicyclo[1.1.1]pentan-1-yl)-2-(3,4-dichlorophenoxy)acetamide] was tested, and the pEC50 was 7.30 to 8.00.
`CS(=O)(=O)c1cc(OCC(=O)NC23CCC(NC(=O)COc4ccc(F)c(F)c4)(CC2)[C@@H](O)C3)ccc1F` [Compound 818, 2-(3,4-difluorophenoxy)-N-[(2S)-4-{2-[4-fluoro-3-(methanesulfonyl)phenoxy]acetamido}-2-hydroxybicyclo[2.2.2]octan-1-yl]acetamide] showed a pEC50 of 6.30 to 6.60.
For `O=C(COc1ccc(F)c(Cl)c1)NC12CCC(NC(=O)COc3ccc(Cl)c(F)c3)(CC1)[C@@H](O)C2` [Compound 545, 2-(4-chloro-3-fluorophenoxy)-N-{(2S)-4-[2-(3-chloro-4-fluorophenoxy)acetamido]-2-hydroxybicyclo[2.2.2]octan-1-yl}acetamide], the pEC50 was > 8.00.
With `Cc1cc(OCC(=O)NC23CCC(NC(=O)COc4ccc(C(F)(F)F)c(F)c4)(CC2)C[C@@H]3O)ccc1Cl` [Compound 841, 2-(4-chloro-3-methylphenoxy)-N-[(2S)-4-{2-[3-fluoro-4-(trifluoromethyl)phenoxy]acetamido}-2-hydroxybicyclo[2.2.2]octan-1-yl]acetamide] the pEC50 was > 8.00.
With `CC(=O)O[C@H]1CC2(NC(=O)COc3ccc(Cl)c(F)c3)CCC1(NC(=O)COc1ccc(Cl)c(F)c1)CC2` [Compound 445, (2S)-1,4-bis[2-(4-chloro-3-fluorophenoxy)acetamido]bicyclo[2.2.2]octan-2-yl acetate] the pEC50 was > 8.00.
With `O=C(COc1ccc(F)c(F)c1)NC12CCC(NC(=O)COc3ccc(Cl)c(F)c3)(CC1)C(O)C2` (centres unmarked) [Compound 329, 2-(4-chloro-3-fluorophenoxy)-N-{4-[2-(3,4-difluorophenoxy)acetamido]-2-hydroxybicyclo[2.2.2]octan-1-yl}acetamide] the pEC50 was > 8.00.
`O=C(CCCOc1cccc(Cl)c1)NC12CC(NC(=O)COc3ccc(Cl)c(F)c3)(C1)C2` [Compound 148, N-{3-[2-(4-chloro-3-fluorophenoxy)acetamido]bicyclo[1.1.1]pentan-1-yl}-4-(3-chlorophenoxy)butanamide] gave a pEC50 of 6.60 to 7.30.
`O=C(COc1ccc(Cl)c(Cl)c1)NC12CC(NCC(O)c3ccc(Cl)cc3)(C1)C2` (centres unmarked) [Compound 288, N-(3-{[2-(4-chlorophenyl)-2-hydroxyethyl]amino}bicyclo[1.1.1]pentan-1-yl)-2-(3,4-dichlorophenoxy)acetamide] showed a pEC50 of 6.60 to 7.30.
Work on `O=C(COc1ccc(Cl)c(Cl)c1)NC12CC(NC(=O)COc3cnc(C4CC4)cn3)(C1)C2` [Compound 285, 2-[(5-cyclopropylpyrazin-2-yl)oxy]-N-{3-[2-(3,4-dichlorophenoxy)acetamido]-bicyclo[1.1.1]pentan-1-yl}acetamide] yielded a pEC50 of 6.60 to 7.30.
For `O=C(COc1ccc(Cl)c(Cl)c1)NC12CCC(NC(=O)COc3ccc(Cl)c(Cl)c3)(CC1)C2` [Compound 526, N,N′-(bicyclo[2.2.1]heptane-1,4-diyl)bis[2-(3,4-dichlorophenoxy)acetamide]], the pEC50 was 7.30 to 8.00.
Molecule `COc1ncc(OCC(=O)NC23CCC(NC(=O)COc4ccc(Cl)c(F)c4)(CC2)C(=O)C3)cn1` [Compound 655, 2-(4-chloro-3-fluorophenoxy)-N-(4-{2-[(2-methoxypyrimidin-5-yl)oxy]acetamido}-2-oxobicyclo[2.2.2]octan-1-yl)acetamide] has a pEC50 of 7.30 to 8.00.
Work on `O=C(COc1ccc(Cl)c(Cl)c1)NC12CC(NC(=O)COc3ccccn3)(C1)C2` [Compound 401, 2-(3,4-dichlorophenoxy)-N-(3-{2-[(pyridin-2-yl)oxy]acetamido}bicyclo[1.1.1]pentan-1-yl)acetamide] yielded a pEC50 of 7.30 to 8.00.
`O=C(COc1ccc(F)c(F)c1)NC12CCC(NC(=O)COc3ccc(F)c(C(F)(F)F)c3)(CC1)[C@@H](O)C2` [Compound 829, 2-(3,4-difluorophenoxy)-N-[(3S)-4-{2-[4-fluoro-3-(trifluoromethyl)phenoxy]acetamido}-3-hydroxybicyclo[2.2.2]octan-1-yl]acetamide] was tested, and the pEC50 was > 8.00.
`CCCS(=O)(=O)c1ccc(OCC(=O)NC23CCC(NC(=O)COc4ccc(Cl)c(F)c4)(CC2)[C@@H](O)C3)cc1` [Compound 474, 2-(4-chloro-3-fluorophenoxy)-N-[(2S)-2-hydroxy-4-{2-[4-(propane-1-sulfonyl)phenoxy]acetamido}bicyclo[2.2.2]octan-1-yl]acetamide] was tested, and the pEC50 was < 5.70.
With `O=C(COc1ccc(Cl)c(F)c1)NC12CC(NC(=O)COc3ccc(OC(F)(F)F)c(F)c3)(C1)C2` [Compound 415, 2-(4-chloro-3-fluorophenoxy)-N-(3-{2-[3-fluoro-4-(trifluoromethoxy)phenoxy]acetamido}bicyclo[1.1.1]pentan-1-yl)acetamide] the pEC50 was > 8.00.
`O=C(COc1ccc(Cl)c(F)c1)NC12CC(NC(=O)Oc3ccc(Cl)cc3)(C1)C2` [Compound 434, 4-chlorophenyl {3-[2-(4-chloro-3-fluorophenoxy)acetamido]bicyclo[1.1.1]pentan-1-yl}carbamate] gave a pEC50 of 6.30 to 6.60.
`N#CC1CC2(NC(=O)COc3ccc(Cl)c(F)c3)CCC1(NC(=O)COc1ccc(Cl)c(F)c1)CC2` (centres unmarked) [Compound 387, N,N′-(2-cyanobicyclo[2.2.2]octane-1,4-diyl)bis[2-(4-chloro-3-fluorophenoxy)acetamide]] was tested, and the pEC50 was > 8.00.
`O=C(COc1ccc(C(F)(F)F)nc1)NC12CCC(NC(=O)COc3ccc(Cl)c(F)c3)(CC1)CC2` [Compound 101, 2-(4-chloro-3-fluorophenoxy)-N-[4-(2-{[6-(trifluoromethyl)pyridin-3-yl]oxy}acetamido)bicyclo[2.2.2]octan-1-yl]acetamide] showed a pEC50 of 7.30 to 8.00.
For `O=C(COc1ccc(Cl)c(F)c1)NC12CCC(NC(=O)Cc3cccnc3)(CC1)C(O)C2` (centres unmarked) [Compound 324, 2-(4-chloro-3-fluorophenoxy)-N-{3-hydroxy-4-[2-(pyridin-3-yl)acetamido]bicyclo[2.2.2]octan-1-yl}acetamide], the pEC50 was < 5.70.
